The test system of assay [1] is non-obese diabetic (NOD) mice. The assay is described as follows: Onset of hyperglycemia / Type 1 diabetes in NOD mice with sublingual treatment. The format is in vivo, mouse. The following applies: for Median Survival (time to Type 1 diabetes onset): female NOD mice, sublingual 87 μg once per day, diabetic = three consecutive blood glucose readings above 300 mg/dL, control 21 weeks; for Gehan-Breslow-Wilcoxon test: Are the survival curves significantly different? / Log-rank (Mantel-Cox) test: Are the survival curves significantly different?: vs control. As to the method: Sublingual formulation. A commercial high dose Humulin® solution (Humulin® R U-500) containing 500 units of insulin per mL is mixed with an additional equal volume (1:1 (vol:vol)) 100% glycerin. Each dose contains 10 μL of the Humulin®-glycerin solution, which contains 2.5 units (approximately 87 micrograms) of insulin in a solution having a final concentration of 52 vol. % glycerin.
NOD mice. Non-obese diabetic (NOD) mice, as described by Makino (Adv. Immunol. 51:285-322 (1992)), are used in the studies described herein. NOD mice provide an animal model for the spontaneous development of Type 1 diabetes. NOD mice develop insulitis as a result of leukocyte infiltration into the pancreatic islet, which in turn leads to the destruction of pancreatic islets and a Type 1 diabetic phenotype.
Five-week old female NOD mice were randomly assigned to three groups: (1) control group (1:1 glycerin/phosphate buffered saline (PBS)); (2) insulin-related peptide treatment (Humulin®) started at six weeks of age; or (3) insulin-related peptide treatment (Humulin®) started at ten weeks of age. Mice in the treatment groups (2) and (3) were sublingually administered 87 μg of Humulin® (10 μL of solution) once per day up to 30 weeks of age. Blood glucose measurements were taken once per week up to 20 weeks of age, and then twice per week thereafter. Mice were classified as diabetic after three consecutive blood glucose readings above 300 mg/dL (hyperglycemic).

Assay [2] relates to islet cell autoantibody levels. The assay is described as follows: Autoantibody titer in NOD mice (ELISA). Conditions: sublingual 87 μg once per day up to 30 weeks of age, compared to untreated controls. Format: in vivo, mouse. The text has this: Autoantibody titer assay. Commercially available ELISA assays are employed for detecting the presence of anti-insulin antibodies in serum samples collected from subjects.
(§1) Five-week old female NOD mice are randomly assigned to three groups as described in Example 1: (1) control group (oil only); (2) insulin-related peptide treatment (Humulin®) started at six weeks of age; or (3) insulin-related peptide treatment (Humulin®) started at ten weeks of age. Mice in the treatment groups (2) and (3) are sublingually administered 87 μg of humulin once per day up to 30 weeks of age. The subjects are assessed for baseline levels of autoantibodies at week 6. Thereafter, autoantibody titer measurements are taken once every other week beginning at week 15 up to 30 weeks of age.

Another assay concerns serum C-peptide. The assay is described as follows: Serum C-peptide levels in NOD mice (mouse C-peptide ELISA). Format: in vivo. The following applies: sublingual 87 μg once per day up to 30 weeks of age, compared to untreated control NOD mice. The procedure: Serum C-peptide assay. The mouse C-peptide ELISA (ALPCO), which quantifies C-peptide protein products of mouse I and mouse II proinsulin genes, is used. Briefly, serum is collected by inserting a needle into the submandibular vein and collecting ˜0.2 mL of blood. The blood is centrifuged for 30 minutes at 17,000 rpm in a refrigerated centrifuge, and serum is collected and stored −80° C.
as §1, with “Humulin®” for “humulin”, “Baseline C-peptide measurements” for “The subjects”, “taken from serum drawn” for “assessed for baseline levels of autoantibodies”, “C-peptide” for “autoantibody titer”, “from serum drawn 1 time per 2 weeks” for “once every other week”, “20” for “15”

Where [3] appears, read: FIG. 1A, treatment group 2, sublingual, started at six weeks of age, compared to control group.
Where [4] appears, read: FIG. 1A, treatment started at 6 weeks of age.
[5] abbreviates: FIG. 1B, treatment started at 10 weeks of age.

As for “Humulin: commercial recombinant human insulin solution (Humulin R U-500, 500 units/mL) mixed 1:1 with 100% glycerin for sublingual dosing”, in assay [1] (FIG. 1A, started at 6 weeks of age up to 30 weeks), the “Median Survival (time to Type 1 diabetes onset)” value is listed as 27 weeks. Further, in assay [1] (setting [3]), the “incidence (% T1D Onset) of Type 1 diabetes” value is recorded as “significantly reduced” and the “onset time (weeks) of Type 1 diabetes” value is “significantly reduced”. Moreover, in assay [1] (setting [4]), the “Ratio of median survival (control vs Humulin)” value came out at 0.778, the “Reciprocal of ratio of median survival” value was 1.29, the “Gehan-Breslow-Wilcoxon test: Are the survival curves significantly different?” value is “Yes” and the “Log-rank (Mantel-Cox) test: Are the survival curves significantly different?” value is reported as “Yes”. Further, the “Median Survival (time to Type 1 diabetes onset)” value in assay [1] (FIG. 1B, started at 10 weeks of age up to 30 weeks) was 24 weeks. In addition, in assay [1] (setting [5]), the “Ratio of median survival (control vs Humulin)” value is 0.8750, the “Reciprocal of ratio of median survival” value was 1.14, the “Gehan-Breslow-Wilcoxon test: Are the survival curves significantly different?” value is given as “No” and the “Log-rank (Mantel-Cox) test: Are the survival curves significantly different?” value is “No”. In addition, the “antigenic response (e.g., islet cell autoantibody levels)” value in assay [2] was “attenuated antigenic response”. In the assay on serum C-peptide, the “serum C-peptide levels” value was “maintenance or enhanced serum C-peptide levels”.
